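Test compounds were applied to cells in 96-well plates for 48 hours at 5 doses. GI50: concentration for 50% inhibition of growth.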 The source made the active and inactive calls. Cut-off read from the data, not from the text of the source: active = GI50 up to about 1.1 µM and inactive = higher.

Some test systems named below: 786-0; ACHN; CAKI-1; COLO 205; EKVX; HL-60; HOP-92; Hs-578T; LOX IMVI; MOLT-4; NCI-H226; OVCAR-8; RXF 393; SF-295; SK-MEL-28; SK-MEL-5; SN12C; SR; SW-620; UACC-62.
What all share (assay): DTP human tumour cell line panel, 48 h

For the compound `CN(C)CCNCCCNc1c2ccccc2nc2cccc([N+](=O)[O-])c12`, the GI50 with 786-0 was < 0.0126 µM (active); with ACHN it was 0.017 µM (active); with CAKI-1 it was 0.0385 µM (active); in the experiment on COLO 205, < 0.0141 µM (active); with EKVX, < 0.017 µM (active); with HL-60, < 0.0139 µM (active). The GI50 is < 0.0156 µM (active) in the experiment on HOP-92; < 0.0386 µM (active) with Hs-578T; < 0.0148 µM (active) with LOX IMVI; < 0.01 µM (active) with MOLT-4; 0.0248 µM (active) with NCI-H226; < 0.0146 µM (active) with OVCAR-8. Besides, the GI50 with RXF 393 was 0.0138 µM (active); in the experiment with SF-295, < 0.0163 µM (active); in the experiment with SK-MEL-28 it was 0.188 µM (active); with SK-MEL-5, < 0.0181 µM (active); in the experiment on SN12C, < 0.0208 µM (active); in the experiment with SR, < 0.01 µM (active). Further, the GI50 in the experiment on SW-620 was < 0.0144 µM (active); in the experiment on UACC-62, 0.0446 µM (active).

Consider `S=C1NCN2CCN(CC2)CNC(=S)C(=S)NCN2CCN(CC2)CNC1=S`, for which the GI50 with 786-0 is 45.1 µM (inactive); with ACHN it was 72.1 µM (inactive); in the experiment with CAKI-1, 35.2 µM (inactive); with COLO 205 it was 35.6 µM (inactive); with EKVX, 40.9 µM (inactive); with HL-60 it was 24.2 µM (inactive). Also, the GI50 in the experiment on HOP-92 is 62.1 µM (inactive); in the experiment with Hs-578T, 54.1 µM (inactive); with LOX IMVI, 22.3 µM (inactive); with NCI-H226, > 100 µM (inactive); in the experiment on OVCAR-8, 31.8 µM (inactive); in the experiment with RXF 393 it was 56 µM (inactive). For the same compound, the GI50 was > 100 µM (inactive) with SF-295; > 100 µM (inactive) with SK-MEL-28; 39.5 µM (inactive) with SK-MEL-5; 44.5 µM (inactive) in the experiment on SN12C; 58.9 µM (inactive) with SR; 30.4 µM (inactive) in the experiment with SW-620. Moreover, the GI50 in the experiment with UACC-62 was 67.8 µM (inactive).

Regarding `CC1(C)C(/C=N\O)=[N+]([O-])C(C)(C)N1O`, the GI50 was > 100 µM (inactive) in the experiment with 786-0; > 100 µM (inactive) in the experiment with ACHN; > 100 µM (inactive) in the experiment with CAKI-1; > 100 µM (inactive) in the experiment with COLO 205; > 100 µM (inactive) in the experiment with EKVX; 31.6 µM (inactive) in the experiment on HL-60. Besides, the GI50 in the experiment with HOP-92, in the experiment with Hs-578T, with LOX IMVI, in the experiment with NCI-H226, with OVCAR-8 and in the experiment on RXF 393 was > 100 µM (inactive) in each case. Besides, the GI50 in the experiment with SF-295, in the experiment on SK-MEL-28, in the experiment on SK-MEL-5, with SN12C, with SR and with SW-620 was > 100 µM (inactive) each time. Also, the GI50 in the experiment with UACC-62 is > 100 µM (inactive).

For `O=C1C=C(c2ccccc2)O/C1=C/C(=O)c1ccc(Cl)cc1`, the GI50 in the experiment on 786-0 is 15.9 µM (inactive); in the experiment with ACHN, 16.6 µM (inactive); with CAKI-1 it was 14 µM (inactive); with COLO 205, 16.1 µM (inactive); in the experiment with EKVX, 90.4 µM (inactive); in the experiment with HL-60 it was 1.66 µM (inactive). The GI50 was 19.2 µM (inactive) in the experiment on HOP-92; 22.1 µM (inactive) in the experiment on Hs-578T; 13.3 µM (inactive) with LOX IMVI; 2.85 µM (inactive) with MOLT-4; > 10 µM (inactive) with NCI-H226; 23.1 µM (inactive) in the experiment on OVCAR-8. In addition, the GI50 in the experiment on RXF 393 was 18.9 µM (inactive); with SK-MEL-28 it was 18 µM (inactive); in the experiment on SK-MEL-5 it was 16.7 µM (inactive); with SN12C, 16 µM (inactive); in the experiment with SR it was 2.93 µM (inactive); in the experiment with SW-620, 11.7 µM (inactive). For the same compound, in the experiment with UACC-62, the GI50 was 14 µM (inactive).

For the origin of these results see ChEMBL document CHEMBL1201862, “PubChem BioAssay data set” (2004).
